Biological target: α-glucosidase
Experiment: α-glucosidase inhibitor screening assay (PNPG substrate, absorbance at 405 nm)
Assay type: biochemical
Details: means ± SD (n = 3), phosphate buffer pH 6.8, 37 °C, 1 h, Reed and Muench method, read-out: IC50 (one-half maximal inhibitory concentration to α-glucosidase)
Protocol: The α-glucosidase inhibitor screening assay was conducted as reported previously and slightly modified. […] 4-Nitrophenol-α-D-glucopyranoside (PNPG) was used as an enzyme inhibitor screening model. α-glucosidase solution (0.025 U·mL^−1), PNPG (0.1 M), phosphate buffer (pH 6.8) and test samples (50 μM) were incubated in 96-well plates at 37 °C for 1 h. A microplate reader was recorded by the absorbance at 405 nm. No enzyme as the blank readings were subtracted from each well and compared to the control. In this assay, all reactions were performed in triplicate. The α-glucosidase inhibitory activity was presented as inhibition ratio. The formula to calculate the inhibition rate is as follows: inhibition rate (%) = (1 ‒ OD experimental 405 nm/OD […] 405 nm) × 100%, and IC50 values were calculated according to the Reed and Muench method.

| IC50 | Compound |
| --- | --- |
| 2280 ± 70 nM | O=C(OC[C@H]1O[C@@H](OC(=O)c2cc(O)c(O)c(O)c2)[C@H](O)[C@@H](OC(=O)c2cc(O)c(O)c(O)c2)[C@@H]1O)c1cc(O)c(O)c(O)c1 [Compound 11, 1,3,6-tri-O-galloyl-β-D-glucopyranose] |
| 100 ± 10 nM | O=C(OC[C@H]1O[C@@H](OC(=O)c2cc(O)c(O)c(O)c2)[C@H](OC(=O)c2cc(O)c(O)c(O)c2)[C@@H](OC(=O)c2cc(O)c(O)c(O)c2)[C@@H]1OC(=O)c1cc(O)c(O)c(O)c1)c1cc(O)c(O)c(O)c1 [Compound 12, 1,2,3,4,6-penta-O-galloyl-β-D-glucopyranose] |
| 3120 ± 230 nM | O=C(O[C@@H]1O[C@@H]2COC(=O)c3cc(O)c(O)c(O)c3-c3c(cc(O)c(O)c3O)C(=O)O[C@H]([C@H]1O)[C@@H]2O)c1cc(O)c(O)c(O)c1 [Compound 13, corilagin] |

| Compound | IC50 |
| --- | --- |
| O=C1O[C@H]2[C@@H]3OC(=O)c4cc(O)c(O)c(O)c4-c4c(O)c(O)c5oc(=O)c6c(c(O)c(O)c7oc(=O)c4c5c76)-c4c(cc(O)c(O)c4O)C(=O)OC[C@H]3OC(O)[C@@H]2OC(=O)c2cc(O)c(O)c(O)c2-c2c1cc(O)c(O)c2O (mixture of isomers) [Compound 10, punicalagin] | 270 ± 10 nM |

Source: PMC8390638, “Termitomenins F and G, Two New Lignan Glucosides from Terminalia chebula var. tomentella (Kurz) C. B. Clarke” (Natural Products and Bioprospecting, 2021)
